The text below walks through data of BindingDB's records for doi:10.1021/jm051030l (University of Pittsburgh, 2006).

Molecules are shown by their SMILES. Structures can show the parent of a compound that is named as a salt.

This assay deals with Cytoplasmic dynein 1 heavy chain 1 (Rattus norvegicus, UniProt P38650). Description: Inhibition of MT-stimulated ATPase activity of rat cytoplasmic dynein heavy chain motor domain.
Cytoplasmic dynein 1 heavy chain 1, sequence (P38650 whole entry, the tested form may be a part): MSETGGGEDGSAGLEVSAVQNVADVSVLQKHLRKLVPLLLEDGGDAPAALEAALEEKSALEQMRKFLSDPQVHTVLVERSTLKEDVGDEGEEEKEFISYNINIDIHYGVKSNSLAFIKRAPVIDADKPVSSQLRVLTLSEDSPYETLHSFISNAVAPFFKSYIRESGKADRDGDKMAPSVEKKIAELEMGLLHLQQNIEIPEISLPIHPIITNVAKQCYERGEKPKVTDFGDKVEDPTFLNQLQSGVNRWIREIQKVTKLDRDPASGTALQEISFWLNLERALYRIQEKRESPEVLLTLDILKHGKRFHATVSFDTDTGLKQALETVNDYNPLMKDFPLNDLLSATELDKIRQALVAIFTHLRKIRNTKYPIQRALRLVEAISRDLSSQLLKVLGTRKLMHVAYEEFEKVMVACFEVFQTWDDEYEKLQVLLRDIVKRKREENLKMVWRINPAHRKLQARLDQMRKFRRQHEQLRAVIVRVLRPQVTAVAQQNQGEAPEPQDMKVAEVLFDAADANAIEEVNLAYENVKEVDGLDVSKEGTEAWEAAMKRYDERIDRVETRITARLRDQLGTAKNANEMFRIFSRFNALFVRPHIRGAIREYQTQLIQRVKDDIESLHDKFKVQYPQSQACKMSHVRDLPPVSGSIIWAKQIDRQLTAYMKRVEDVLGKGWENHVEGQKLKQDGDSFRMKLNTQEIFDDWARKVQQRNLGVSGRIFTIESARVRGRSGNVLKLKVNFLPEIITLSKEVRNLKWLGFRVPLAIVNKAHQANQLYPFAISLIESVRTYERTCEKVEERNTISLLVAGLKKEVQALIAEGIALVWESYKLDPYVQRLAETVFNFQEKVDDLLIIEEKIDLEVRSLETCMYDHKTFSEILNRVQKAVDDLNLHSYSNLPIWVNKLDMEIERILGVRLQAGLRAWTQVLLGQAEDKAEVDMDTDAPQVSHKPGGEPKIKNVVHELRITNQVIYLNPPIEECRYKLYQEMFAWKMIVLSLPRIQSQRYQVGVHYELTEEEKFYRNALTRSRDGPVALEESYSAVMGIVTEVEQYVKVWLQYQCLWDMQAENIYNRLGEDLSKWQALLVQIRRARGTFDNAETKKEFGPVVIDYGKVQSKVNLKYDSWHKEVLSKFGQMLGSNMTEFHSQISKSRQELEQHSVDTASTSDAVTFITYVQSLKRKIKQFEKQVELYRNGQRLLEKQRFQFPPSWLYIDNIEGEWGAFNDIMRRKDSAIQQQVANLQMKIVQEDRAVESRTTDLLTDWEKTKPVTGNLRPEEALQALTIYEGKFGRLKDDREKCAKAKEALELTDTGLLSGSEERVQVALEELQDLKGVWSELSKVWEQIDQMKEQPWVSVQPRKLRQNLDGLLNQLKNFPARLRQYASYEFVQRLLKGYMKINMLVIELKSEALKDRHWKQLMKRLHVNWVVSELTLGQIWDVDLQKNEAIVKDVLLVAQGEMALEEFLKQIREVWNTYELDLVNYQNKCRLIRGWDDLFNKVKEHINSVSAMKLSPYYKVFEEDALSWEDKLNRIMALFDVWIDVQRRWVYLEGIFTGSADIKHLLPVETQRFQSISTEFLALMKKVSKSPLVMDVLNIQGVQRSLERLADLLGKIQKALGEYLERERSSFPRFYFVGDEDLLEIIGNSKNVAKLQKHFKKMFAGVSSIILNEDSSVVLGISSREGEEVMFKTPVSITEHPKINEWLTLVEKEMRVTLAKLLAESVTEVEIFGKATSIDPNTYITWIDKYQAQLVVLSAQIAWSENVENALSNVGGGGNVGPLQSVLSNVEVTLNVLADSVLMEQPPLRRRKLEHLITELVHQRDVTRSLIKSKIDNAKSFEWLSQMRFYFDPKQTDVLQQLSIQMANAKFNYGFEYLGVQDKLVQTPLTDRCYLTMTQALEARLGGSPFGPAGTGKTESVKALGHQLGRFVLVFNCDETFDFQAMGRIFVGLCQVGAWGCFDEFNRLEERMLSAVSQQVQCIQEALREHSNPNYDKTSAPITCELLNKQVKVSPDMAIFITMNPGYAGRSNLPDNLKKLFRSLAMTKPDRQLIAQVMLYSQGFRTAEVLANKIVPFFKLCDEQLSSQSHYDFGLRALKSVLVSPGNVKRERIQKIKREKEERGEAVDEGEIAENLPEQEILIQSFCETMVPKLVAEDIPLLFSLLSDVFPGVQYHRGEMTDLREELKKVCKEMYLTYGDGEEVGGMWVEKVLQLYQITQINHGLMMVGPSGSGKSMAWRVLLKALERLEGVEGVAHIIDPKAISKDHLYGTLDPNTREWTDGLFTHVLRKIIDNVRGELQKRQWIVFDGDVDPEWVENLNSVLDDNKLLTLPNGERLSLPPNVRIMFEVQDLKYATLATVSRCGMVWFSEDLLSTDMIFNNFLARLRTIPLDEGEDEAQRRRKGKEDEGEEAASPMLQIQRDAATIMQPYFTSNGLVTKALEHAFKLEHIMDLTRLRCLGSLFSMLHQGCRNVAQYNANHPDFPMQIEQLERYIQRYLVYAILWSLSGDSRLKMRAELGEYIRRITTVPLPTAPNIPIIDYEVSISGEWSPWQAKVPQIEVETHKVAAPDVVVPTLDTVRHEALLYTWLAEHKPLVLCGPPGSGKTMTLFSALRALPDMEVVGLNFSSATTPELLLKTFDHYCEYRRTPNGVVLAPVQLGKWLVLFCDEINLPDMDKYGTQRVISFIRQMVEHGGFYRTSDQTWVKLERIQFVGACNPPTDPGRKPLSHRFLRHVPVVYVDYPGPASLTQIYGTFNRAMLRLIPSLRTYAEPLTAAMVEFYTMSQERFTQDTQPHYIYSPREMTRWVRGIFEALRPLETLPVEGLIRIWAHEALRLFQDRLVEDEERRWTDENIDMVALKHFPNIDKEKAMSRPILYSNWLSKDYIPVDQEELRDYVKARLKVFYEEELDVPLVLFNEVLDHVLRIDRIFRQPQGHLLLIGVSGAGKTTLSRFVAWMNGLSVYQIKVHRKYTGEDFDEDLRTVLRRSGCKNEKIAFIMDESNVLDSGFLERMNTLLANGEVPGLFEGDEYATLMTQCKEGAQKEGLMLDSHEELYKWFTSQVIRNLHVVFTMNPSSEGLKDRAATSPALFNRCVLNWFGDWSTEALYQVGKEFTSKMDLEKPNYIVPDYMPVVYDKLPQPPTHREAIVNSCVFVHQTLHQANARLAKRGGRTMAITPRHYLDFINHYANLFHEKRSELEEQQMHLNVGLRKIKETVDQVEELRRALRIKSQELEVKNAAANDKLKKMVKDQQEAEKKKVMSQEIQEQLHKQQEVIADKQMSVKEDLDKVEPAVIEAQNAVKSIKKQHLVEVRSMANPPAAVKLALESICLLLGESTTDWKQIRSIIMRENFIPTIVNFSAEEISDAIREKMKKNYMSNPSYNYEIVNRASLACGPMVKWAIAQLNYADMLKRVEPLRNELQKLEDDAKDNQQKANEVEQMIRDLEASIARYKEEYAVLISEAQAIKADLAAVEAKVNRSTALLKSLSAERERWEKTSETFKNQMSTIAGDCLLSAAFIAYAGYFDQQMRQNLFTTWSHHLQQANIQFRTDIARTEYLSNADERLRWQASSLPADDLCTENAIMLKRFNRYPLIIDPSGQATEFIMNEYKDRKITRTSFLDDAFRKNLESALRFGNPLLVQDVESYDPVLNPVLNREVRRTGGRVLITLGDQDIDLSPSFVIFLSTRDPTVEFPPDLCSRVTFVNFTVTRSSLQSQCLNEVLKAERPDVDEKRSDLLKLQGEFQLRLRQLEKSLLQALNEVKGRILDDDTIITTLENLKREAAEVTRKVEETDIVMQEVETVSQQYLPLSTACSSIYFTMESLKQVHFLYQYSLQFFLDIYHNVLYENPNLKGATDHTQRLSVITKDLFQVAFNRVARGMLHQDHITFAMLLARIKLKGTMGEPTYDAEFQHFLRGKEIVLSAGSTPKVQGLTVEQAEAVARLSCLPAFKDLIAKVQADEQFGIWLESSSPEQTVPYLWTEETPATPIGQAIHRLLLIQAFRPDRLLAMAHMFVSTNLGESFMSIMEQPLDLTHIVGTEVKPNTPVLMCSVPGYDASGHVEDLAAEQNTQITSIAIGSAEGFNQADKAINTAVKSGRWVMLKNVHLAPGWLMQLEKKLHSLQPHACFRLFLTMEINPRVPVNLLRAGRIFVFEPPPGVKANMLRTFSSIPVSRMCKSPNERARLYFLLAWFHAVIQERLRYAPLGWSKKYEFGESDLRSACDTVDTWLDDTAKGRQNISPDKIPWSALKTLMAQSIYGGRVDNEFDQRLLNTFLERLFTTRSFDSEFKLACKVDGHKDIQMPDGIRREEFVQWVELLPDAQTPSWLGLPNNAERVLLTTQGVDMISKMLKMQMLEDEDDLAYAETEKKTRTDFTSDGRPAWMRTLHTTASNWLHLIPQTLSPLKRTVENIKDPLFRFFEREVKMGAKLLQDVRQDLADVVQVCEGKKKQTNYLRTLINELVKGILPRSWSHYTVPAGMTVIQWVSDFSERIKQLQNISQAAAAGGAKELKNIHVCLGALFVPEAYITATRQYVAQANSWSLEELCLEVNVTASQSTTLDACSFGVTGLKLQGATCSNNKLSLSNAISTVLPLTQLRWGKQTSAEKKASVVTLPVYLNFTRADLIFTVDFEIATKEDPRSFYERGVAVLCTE
For `NCCCOc1c(Br)cc(Br)cc1CC(N=O)C(=O)NCCc1c[nH]c2ccccc12` (stereo unspecified) [3-[2-(3-aminopropoxy)-3,5-dibromophenyl]-2-hydroxyimino-N-[2-(1H-indol-3-yl)ethyl]propanamide hydrochloride], the IC50 (in general, the concentration needed to halve the response being measured) was more than 50 µM.

`NCCCOc1c(Br)cc(Br)cc1CC(N=O)C(=O)NCCc1ccc(Cl)cc1` (stereo unspecified) [3-[2-(3-aminopropoxy)-3,5-dibromophenyl]-N-[2-(4-chlorophenyl)ethyl]-2-hydroxyiminopropanamide hydrochloride] had an IC50 of more than 50 µM.

The compound `NCCCOc1c(Cl)cc(Cl)cc1CC(N=O)C(=O)NCCc1c[nH]c2ccccc12` (stereo unspecified) [3-[2-(3-aminopropoxy)-3,5-dichlorophenyl]-2-hydroxyimino-N-[2-(1H-indol-3-yl)ethyl]propanamide hydrochloride] displayed an IC50 of more than 50 µM.

Consider `NCCCOc1ccc(CC(N=O)C(=O)NCCc2c[nH]c3ccccc23)cc1Br` (stereo unspecified) [3-[4-(3-aminopropoxy)-3-bromophenyl]-2-hydroxyimino-N-[2-(1H-indol-3-yl)ethyl]propanamide hydrochloride], for which the IC50 was more than 50 µM.

Compound `NCCCOc1ccc(CC(N=O)C(=O)NCCc2ccc(Cl)cc2)cc1Br` (stereo unspecified) [3-[4-(3-aminopropoxy)-3-bromophenyl]-N-[2-(4-chlorophenyl)ethyl]-2-hydroxyiminopropanamide hydrochloride] gave an IC50 of more than 50 µM.

`CCCCCCCCCCCCCC(=O)NCCCOc1c(Br)cc(CC(N=O)C(=O)NCCc2cnc(N)[nH]2)cc1Br` (stereo unspecified) [Lipopurealin A] gave an IC50 of more than 50 µM.
